Test results from patent publication US11339136B2 (Novartis AG, priority 2016, dated 2022).

Target: T1, hNLRP3 (Homo sapiens, UniProt Q96P20)
T1 construct: THP-1 cells were purchased from the American Type Culture Collection; host or cells: THP-1 cells, PMA-differentiated
Experiment: IL-1β production in PMA-differentiated THP-1 cells stimulated with gramicidin
Type: cell-based
Conditions: gramicidin 5 μM, IL-1β in supernatant, Table 2
Experimental: Bioassay: IL-1β Production in PMA-Differentiated THP-1 Cells Stimulated with Gramicidin. Procedure 1:
Cell culture—THP-1 cells were purchased from the American Type Culture Collection and sub-cultured according to instructions from the supplier. Prior to experiments, cells were cultured in RPMI 1640 containing 10% heat inactivated FBS, penicillin (100 units/ml) and streptomycin (100 μg/ml), and maintained in log phase prior to experimental setup. Prior to the experiment THP-1 were treated with PMA (Phorbol 12-myristate 13-acetate) (10 μg/ml) for 24 hours. The day of the experiment the media was removed and attaching cells were treated with trypsin for 2 minutes, cells were then collected, washed with PBS (phosphate buffer saline), spin down, resuspended in 2% heat inactivated FBS with RPMI at a concentration of 1×10^6 cells/ml, and 100 ul was plated in a 96 well plate. Cells were incubated with compounds for 1 hours and then stimulated with Gramicidin (5 μM) (Enzo) for 2 hours. Cell free supernatant was collected and the production of IL-1β was evaluated by ELISA. Compounds were dissolved in dimethyl sulfoxide (DMSO) and added to the culture medium to achieve desired concentration (e.g. 100, 30, 10, 3, 1, 0.3 or 0.1 μM). A vehicle only control was run concurrently with each experiment. Final DMSO concentration was 1%.
THP-1 cells were purchased from the American Type Culture Collection and sub-cultured according to instructions from the supplier. Prior to experiments, cells were cultured in complete RPMI 1640 (containing 10% heat inactivated FBS, penicillin (100 units/ml) and streptomycin (100 μg/ml)), and maintained in log phase prior to experimental setup. Prior to the experiment THP-1 were treated with PMA (Phorbol 12-myristate 13-acetate) (20 ng/ml) for 16-18 hours. On the day of the experiment the media was removed and adherent cells were detached with trypsin for 5 minutes. Cells were then harvested, washed with complete RPMI 1640, spun down, resuspended in RPMI 1640 (containing 2% heat inactivated FBS, penicillin (100 units/ml) and streptomycin (100 μg/ml). The cells were plated in a 384-well plate at a density of 50,000 cells/well (final assay volume 50 μl). Compounds were dissolved in dimethyl sulfoxide (DMSO) and added to the culture medium to achieve desired concentration (e.g. 100, 33, 11, 3.7, 1.2, 0.41, 0.14, 0.046, 0.015, 0.0051, 0.0017 μM). Cells were incubated with compounds for 1 hour and then stimulated with gramicidin (5 μM) (Enzo) for 2 hours. Cell free supernatant was collected and the production of IL-1β was evaluated by HTRF (cisbio). A vehicle only control was run concurrently with each experiment. Final DMSO concentration was 0.38%.

T1 sequence (Q96P20 whole entry): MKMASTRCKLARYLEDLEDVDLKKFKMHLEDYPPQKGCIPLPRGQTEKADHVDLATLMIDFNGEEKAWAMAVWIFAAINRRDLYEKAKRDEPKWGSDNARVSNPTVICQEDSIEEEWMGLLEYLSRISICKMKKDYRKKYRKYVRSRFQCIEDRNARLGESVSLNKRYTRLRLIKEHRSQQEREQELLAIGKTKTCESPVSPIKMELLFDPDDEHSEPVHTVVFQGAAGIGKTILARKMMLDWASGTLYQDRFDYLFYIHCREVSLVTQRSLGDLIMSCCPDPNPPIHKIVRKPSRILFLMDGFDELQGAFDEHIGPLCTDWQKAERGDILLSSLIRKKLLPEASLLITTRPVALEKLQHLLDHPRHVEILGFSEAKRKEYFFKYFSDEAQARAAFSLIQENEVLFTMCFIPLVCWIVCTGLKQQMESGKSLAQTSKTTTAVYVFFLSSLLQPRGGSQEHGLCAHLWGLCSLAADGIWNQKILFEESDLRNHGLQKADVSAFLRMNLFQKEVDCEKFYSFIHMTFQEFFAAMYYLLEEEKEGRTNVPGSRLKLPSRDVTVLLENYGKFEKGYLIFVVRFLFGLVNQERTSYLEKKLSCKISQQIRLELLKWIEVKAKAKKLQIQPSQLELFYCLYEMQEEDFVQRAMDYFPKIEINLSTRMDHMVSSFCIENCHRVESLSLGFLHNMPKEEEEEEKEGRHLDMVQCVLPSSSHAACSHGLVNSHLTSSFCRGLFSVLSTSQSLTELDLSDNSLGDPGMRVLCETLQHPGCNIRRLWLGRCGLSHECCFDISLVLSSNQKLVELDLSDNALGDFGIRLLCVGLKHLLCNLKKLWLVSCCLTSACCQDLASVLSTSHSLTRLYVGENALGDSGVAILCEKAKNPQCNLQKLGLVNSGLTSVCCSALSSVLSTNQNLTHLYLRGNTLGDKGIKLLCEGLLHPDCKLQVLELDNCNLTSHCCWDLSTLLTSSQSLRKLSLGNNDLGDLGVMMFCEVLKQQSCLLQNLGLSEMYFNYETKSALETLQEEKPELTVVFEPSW

IC50 [nM]	Compound
< 1000	CC(C)c1cc(F)cc(C(C)C)c1NC(=O)NS(=O)(=O)c1cc(C2(O)CC2)co1 [Compound 205, N-(4-fluoro-2,6-diisopropylphenyl-carbamoyl)-4-(1-hydroxycyclo-propyl)furan-2-sulfonamide]
< 1000	N#Cc1c2c(c(NC(=O)NS(=O)(=O)c3cc(C4(O)CC4)co3)c3c1CCC3)CCC2 [Compound 206, N-(8-cyano-1,2,3,5,6,7-hexahydros-indacen-4-ylcarbamoyl)-4-(1-hydroxycyclopropyl) furan-2-sulfonamide]
< 1000	O=C(Nc1c2c(c(F)c3c1CCC3)CCC2)NS(=O)(=O)c1cc(C2(O)CC2)co1 [Compound 207, N-(8-fluoro-1,2,3,5,6,7-hexahydros-indacen-4-ylcarbamoyl)-4-(1-hydroxycyclo-propyl)furan-2-sulfonamide]
< 1000	CC(C)(O)c1cnc(S(=O)(=O)NC(=O)Nc2c3c(c(F)c4c2CCC4)CCC3)s1 [Compound 209, N-(8-fluoro-1,2,3,5,6,7-hexahydros-indacen-4-ylcarbamoyl)-5-(2-hydroxypropan-2-yl)thiazole-2-sulfonamide]
< 1000	O=C(Nc1c2c(c(Cl)c3c1CCC3)CCC2)NS(=O)(=O)c1cc(C2(O)CC2)cs1 [Compound 210, N-(8-chloro-1,2,3,5,6,7-hexahydros-indacen-4-ylcarbamoyl)-4-(1-hydroxycyclo-propyl)thiophene-2-sulfonamide]
< 1000	CC(C)c1cc(F)cc(C(C)C)c1NC(=O)NS(=O)(=O)c1cc(C(C)(C)O)cs1 [Compound 211, N-(4-fluoro-2,6-diisopropylphenyl-carbamoyl)-4-(2-hydroxypropan-2-yl)thiophene-2-sulfonamide]
< 1000	CC(C)c1ccc(F)c(C(C)C)c1NC(=O)NS(=O)(=O)c1cc(C2(O)CC2)co1 [Compound 212]
< 1000	CC(C)c1ccc(F)c(C(C)C)c1NC(=O)NS(=O)(=O)c1ncc(C(C)(C)O)s1 [Compound 213, N-(3-fluoro-2,6-diisopropylphenyl-carbamoyl)-5-(2-hydroxypropan-2-yl)thiazole-2-sulfonamide]
< 1000	O=C(Nc1c2c(cc3c1CCC3)CCC2)NS(=O)(=O)c1cc(C2(O)CC2)cs1 [Compound 216]
< 1000	CC(C)c1cc(C#N)cc(C(C)C)c1NC(=O)NS(=O)(=O)c1cc(C(C)(C)O)cs1 [Compound 217, N-(4-cyano-2,6-diisopropylphenyl-carbamoyl)-4-(2-hydroxypropan-2-yl)thiophene-2-sulfonamide]
< 1000	CC(C)c1ccc(F)c(C(C)C)c1NC(=O)NS(=O)(=O)c1cc(C2(O)CC2)cs1 [Compound 218, N-(3-fluoro-2,6-diisopropylphenyl-carbamoyl)-4-(1-hydroxycyclo-propyl)thiophene-2-sulfonamide]
< 1000	CC(C)c1cc(Cl)cc(C(C)C)c1NC(=O)NS(=O)(=O)c1ncc(C(C)(C)O)s1 [Compound 219, N-(4-chloro-2,6-diisopropylphenyl-carbamoyl)-5-(2-hydroxypropan-2-yl)thiazole-2-sulfonamide]
1000 to 5000	CC(C)(O)c1cnc(S(=O)(=O)NC(=O)Nc2c3c(c(C#N)c4c2CCC4)CCC3)s1 [Compound 220, N-(8-cyano-1,2,3,5,6,7-hexahydros-indacen-4-ylcarbamoyl)-5-(2-hydroxypropan-2-yl)thiazole-2-sulfonamide]
< 1000	CC(C)(O)c1cnc(S(=O)(=O)NC(=O)Nc2c3c(c(Cl)c4c2CCC4)CCC3)s1 [Compound 221, N-(8-chloro-1,2,3,5,6,7-hexahydros-indacen-4-ylcarbamoyl)-5-(2-hydroxypropan-2-yl)thiazole-2-sulfonamide]
< 1000	N#Cc1c2c(c(NC(=O)NS(=O)(=O)c3cc(C4(O)CC4)cs3)c3c1CCC3)CCC2 [Compound 223, N-(8-cyano-1,2,3,5,6,7-hexahydros-indacen-4-ylcarbamoyl)-4-(1-hydroxycyclo-propyl)thiophene-2-sulfonamide]
< 1000	CC(C)(O)c1csc(S(=O)(=O)NC(=O)Nc2c3c(c(C#N)c4c2CCC4)CCC3)c1 [Compound 224, N-(8-cyano-1,2,3,5,6,7-hexahydros-indacen-4-ylcarbamoyl)-4-(2-hydroxypropan-2-yl)thiophene-2-sulfonamide]

IC50 [nM]	Compound
< 1000	CC(C)c1cc(C#N)cc(C(C)C)c1NC(=O)NS(=O)(=O)c1ncc(C(C)(C)O)s1 [Compound 226, N-(4-cyano-2,6-diisopropylphenyl-carbamoyl)-5-(2-hydroxypropan-2-yl)thiazole-2-sulfonamide]
< 1000	CC(C)c1cccc(C(C)C)c1NC(=O)NS(=O)(=O)c1ncc(C(C)(C)O)s1 [Compound 227, N-(2,6-diisopropylphenyl-carbamoyl)-5-(2-hydroxypropan-2-yl)thiazole-2-sulfonamide]
< 1000	CC(C)c1ccc(F)c(C(C)C)c1NC(=O)NS(=O)(=O)c1cc(C(C)(C)O)cs1 [Compound 228, N-(3-fluoro-2,6-diisopropylphenyl-carbamoyl)-4-(2-hydroxypropan-2-yl)thiophene-2-sulfonamide]
< 1000	CC(C)c1cc(Cl)cc(C(C)C)c1NC(=O)NS(=O)(=O)c1cc(C2(O)CC2)cs1 [Compound 229, N-(4-chloro-2,6-diisopropylphenyl-carbamoyl)-4-(1-hydroxycyclo-propyl)thiophene-2-sulfonamide]
< 1000	CC(C)c1cccc(C(C)C)c1NC(=O)NS(=O)(=O)c1cc(C2(O)CC2)cs1 [Compound 230, N-(2,6-diisopropylphenyl-carbamoyl)-4-(1-hydroxycyclo-propyl)thiophene-2-sulfonamide]
< 1000	CC(C)(O)c1csc(S(=O)(=O)NC(=O)Nc2c3c(c(Cl)c4c2CCC4)CCC3)c1 [Compound 232, N-(8-chloro-1,2,3,5,6,7-hexahydros-indacen-4-ylcarbamoyl)-4-(2-hydroxypropan-2-yl)thiophene-2-sulfonamide]
< 1000	CC(C)(O)c1cnc(S(=O)(=O)NC(=O)Nc2c3c(cc4c2CCC4)CCC3)s1 [Compound 233, N-(1,2,3,5,6,7-hexahydros-indacen-4-ylcarbamoyl)-5-(2-hydroxypropan-2-yl)thiazole-2-sulfonamide]
< 1000	CC(C)c1cc(C#N)cc(C(C)C)c1NC(=O)NS(=O)(=O)c1cc(C2(O)CC2)co1 [Compound 235, N-(4-cyano-2,6-diisopropylphenyl-carbamoyl)-4-(1-hydroxycyclo-propyl)furan-2-sulfonamide]
< 1000	CC(C)c1cc(Cl)cc(C(C)C)c1NC(=O)NS(=O)(=O)c1cc(C2(O)CC2)co1 [Compound 236, N-(4-chloro-2,6-diisopropylphenyl-carbamoyl)-4-(1-hydroxycyclo-propyl)furan-2-sulfonamide]
< 1000	O=C(Nc1c2c(cc3c1CCC3)CCC2)NS(=O)(=O)c1cc(C2(O)CC2)co1 [Compound 247, 1-(1,2,3,5,6,7-hexahydro-s-indacen-4-yl)-3-[4-(1-hydroxycyclopropyl)furan-2-sulfonyl]urea]
1000 to 5000	CC(C)c1ccc(F)c(C(C)C)c1NC(=O)NS(=O)(=O)c1cc(C(C)(C)O)c(Cl)s1 [Compound 250, 5-chloro-N-(3-fluoro-2,6-diisopropylphenylcarbamoyl)-4-(2-hydroxypropan-2-yl)thiophene-2-sulfonamide]
< 1000	CC(C)c1cc(C#N)cc(C(C)C)c1NC(=O)NS(=O)(=O)c1cc(C(C)(C)O)c(Cl)s1 [Compound 251, 5-chloro-N-(4-cyano-2,6-diisopropylphenyl-carbamoyl)-4-(2-hydroxypropan-2-yl)thiophene-2-sulfonamide]
5000 to 15000	CC(C)c1ccc(Cl)c(C(C)C)c1NC(=O)NS(=O)(=O)c1cc(C(C)(C)O)c(Cl)s1 [Compound 252, 5-chloro-N-(3-chloro-2,6-diisopropylphenylcarbamoyl)-4-(2-hydroxypropan-2-yl)thiophene-2-sulfonamide]
< 1000	CC(C)c1cc(F)cc(C(C)C)c1NC(=O)NS(=O)(=O)c1cc(C(C)(C)O)c(Cl)s1 [Compound 253, 5-chloro-N-(4-fluoro-2,6-diisopropylphenyl-carbamoyl)-4-(2-hydroxypropan-2-yl)thiophene-2-sulfonamide]
< 1000	CC(C)c1cc(Cl)cc(C(C)C)c1NC(=O)NS(=O)(=O)c1cc(C(C)(C)O)c(Cl)s1 [Compound 254, 5-chloro-N-(4-chloro-2,6-diisopropylphenyl-carbamoyl)-4-(2-hydroxypropan-2-yl)thiophene-2-sulfonamide]
